Assay results from patent publication US12415786B2, “Substituted 2-heteroarylaminobenzenes and the salts thereof and their use as herbicidal agents” (Bayer Aktiengesellschaft, priority 2019, dated 2025).

Assays:
Type in all cases: in vivo
Agrostis tenuis = test: Herbicidal early post-emergence action (96-well microtiter plates), AGSTE; conditions: 1900 g/ha, scored 9 to 12 days after treatment, 100% = plants have died, 0% = like untreated control plants
Outline: (§1)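 Activity was scored by eye 9 to 12 days after treatment (100% = plants dead, 0% = like untreated controls). Spraying used emulsion concentrates at 1900 g/ha in 2200 L/ha water, applied to cotyledon-stage seedlings raised 5 to 7 days in quartz sand in 96-well plates under controlled conditions.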

Poa annua [1] = test: Herbicidal early post-emergence action (96-well microtiter plates), POAAN; conditions: 1900 g/ha, scored 9 to 12 days after treatment, 100% = plants have died, 0% = like untreated control plants
Outline: as §1

Echinochloa crus-galli [2] = test: Herbicidal post-emergence action (greenhouse pots), ECHCG; conditions: 1280 g/ha, rated after about 3 weeks, 100% = plants have died, 0% = like untreated control plants
Outline: (§2)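 Compounds were applied at 1280 g/ha to the green parts of one-leaf-stage greenhouse weeds, using WP/EC formulations in 600 L/ha water plus 0.5% additive. Visual percent activity was scored around 3 weeks later relative to untreated plants, with 100% meaning plant death.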

Lolium rigidum [3] = test: Herbicidal post-emergence action (greenhouse pots), LOLRI; conditions: 1280 g/ha, rated after about 3 weeks, 100% = plants have died, 0% = like untreated control plants
Text: (§3) In the examples and tables below, the following abbreviations are used: • Undesired Plants/Weeds: • ABUTH: Abutilon theophrasti • AGSTE: Agrostis tenuis • AMARE Amaranthus retroflexus • ECHCG: Echinochloa crus-galli • LOLRI: Lolium rigidum • MATIN: Matricaria inodora • POAAN: Poa annua • SETVI: Setaria viridis • STEME: Stellaria media A. Herbicidal Early Post-Emergence Action Seeds of mono- and dicotyledonous weed plants were placed in plastic pots in sandy loam soil (doubly sown with in each case one species of mono- or dicotyledonous weed plants per pot), covered with soil and cultivated in a greenhouse under controlled growth conditions. 2 to 3 weeks after sowing, the test plants were treated at the one-leaf stage. The compounds of the invention, formulated in the form of wettable powders (WP) or as emulsion concentrates (EC), were applied onto the green parts of the plants as aqueous suspension or emulsion with addition of 0.5% additive at a water application rate of 600 liters per hectare (converted). After the test plants had been kept in the greenhouse under optimum growth conditions for about 3 weeks, the activity of the preparations was rated visually in comparison to untreated controls. For example, 100% activity=the plants have died, 0% activity=like untreated control plants. Tables B1-B8 below show the effects of selected compounds of the general formula (I) according to Table 1 above on various harmful plants and an application rate corresponding to 1280 g/ha, which were obtained by the experimental procedure mentioned above.

Poa annua [4] = test: Herbicidal post-emergence action (greenhouse pots), POAAN; conditions: 1280 g/ha, visual rating about 3 weeks after treatment vs untreated controls
Outline: as §2

Setaria viridis [5] = test: Herbicidal post-emergence action (greenhouse pots), SETVI; conditions: 1280 g/ha, rated after about 3 weeks, 100% = plants have died, 0% = like untreated control plants
Outline: as §2

Abutilon theophrasti [6] = test: Herbicidal post-emergence action (greenhouse pots), ABUTH; conditions: 1280 g/ha, visual rating about 3 weeks after treatment vs untreated controls
Outline: as §2

Stellaria media [7] = test: Herbicidal post-emergence action (greenhouse pots), STEME; conditions: 1280 g/ha, visual rating about 3 weeks after treatment vs untreated controls
Outline: as §2

Echinochloa crus-galli [8] = test: Herbicidal pre-emergence action (greenhouse pots), ECHCG; conditions: 1280 g/ha, visual scoring after about 3 weeks vs untreated controls
Outline: (§4)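 Compounds are applied at 1280 g/ha to the surface of soil covering freshly sown weed seeds. Spray is aqueous suspension or emulsion of WP or EC with 0.5% additive at 600 L/ha. Pots grow in the greenhouse, and visual % activity against untreated controls is rated after about 3 weeks.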

Poa annua [9] = test: Herbicidal pre-emergence action (greenhouse pots), POAAN; conditions: 1280 g/ha, visual scoring after about 3 weeks vs untreated controls
Outline: as §4

Setaria viridis [10] = test: Herbicidal pre-emergence action (greenhouse pots), SETVI; conditions: 1280 g/ha, visual scoring after about 3 weeks vs untreated controls
Outline: as §4

Amaranthus retroflexus [11] = test: Herbicidal pre-emergence action (greenhouse pots), AMARE; conditions: 1280 g/ha, visual scoring after about 3 weeks vs untreated controls
Outline: as §4

Matricaria inodora [12] = test: Herbicidal pre-emergence action (greenhouse pots), MATIN; conditions: 1280 g/ha, visual scoring after about 3 weeks vs untreated controls
Outline: as §4

Amaranthus retroflexus [13] = test: Herbicidal post-emergence action (greenhouse pots), AMARE; conditions: 1280 g/ha, visual rating about 3 weeks after treatment vs untreated controls
Outline: as §2

Lolium rigidum [14] = test: Herbicidal pre-emergence action (greenhouse pots), LOLRI; conditions: 1280 g/ha, visual scoring after about 3 weeks vs untreated controls
Text: In the examples and tables below, the following abbreviations are used: • Undesired Plants/Weeds: • ABUTH: Abutilon theophrasti • AGSTE: Agrostis tenuis • AMARE Amaranthus retroflexus • ECHCG: Echinochloa crus-galli • LOLRI: Lolium rigidum • MATIN: Matricaria inodora • POAAN: Poa annua • SETVI: Setaria viridis • STEME: Stellaria media A. Herbicidal Early Post-Emergence Action Seeds of mono- and dicotyledonous weed plants were placed in plastic pots in sandy loam soil (doubly sown with one species each of mono- or dicotyledonous weed plants per pot) and covered with soil. The compounds of the invention, formulated in the form of wettable powders (WP) or as emulsion concentrates (EC), were then applied onto the surface of the covering soil as aqueous suspension or emulsion with addition of 0.5% additive at a water application rate of 600 liters per hectare (converted). After the treatment, the pots were placed in a greenhouse and kept under good growth conditions for the test plants. After about 3 weeks, the effect of the preparations was scored visually in comparison with untreated controls as percentages. For example, 100% activity=the plants have died, 0% activity=like untreated control plants. Tables C1-C8 below show the effects of selected compounds of the general formula (I) according to Table 1 above on various harmful plants and an application rate corresponding to 1280 g/ha, which were obtained by the experimental procedure mentioned above.

Abutilon theophrasti [15] = test: Herbicidal pre-emergence action (greenhouse pots), ABUTH; conditions: 1280 g/ha, visual scoring after about 3 weeks vs untreated controls
Outline: as §4

Stellaria media [16] = test: Herbicidal pre-emergence action (greenhouse pots), STEME; conditions: 1280 g/ha, visual scoring after about 3 weeks vs untreated controls
Outline: as §4

Matricaria inodora [17] = test: Herbicidal post-emergence action (greenhouse pots), MATIN; conditions: 1280 g/ha, visual rating about 3 weeks after treatment vs untreated controls
Text: as §3

Row | SMILES | AGSTE (herbicidal activity, scored visually in comparison to untreated controls) (Agrostis tenuis) | POAAN (herbicidal activity, scored visually in comparison to untreated controls) (Poa annua [1]) | ECHCG (herbicidal activity, rated visually in comparison to untreated controls) (Echinochloa crus-galli [2]) | LOLRI (herbicidal activity, rated visually in comparison to untreated controls) (Lolium rigidum [3]) | herbicidal activity POAAN (Poa annua [4]) | SETVI (herbicidal activity, rated visually in comparison to untreated controls) (Setaria viridis [5]) | herbicidal activity ABUTH (Abutilon theophrasti [6]) | herbicidal activity STEME (Stellaria media [7]) | herbicidal activity ECHCG (Echinochloa crus-galli [8]) | herbicidal activity POAAN (Poa annua [9]) | herbicidal activity SETVI (Setaria viridis [10]) | herbicidal activity AMARE (Amaranthus retroflexus [11]) | herbicidal activity MATIN (Matricaria inodora [12]) | herbicidal activity AMARE (Amaranthus retroflexus [13]) | herbicidal activity LOLRI (Lolium rigidum [14]) | herbicidal activity ABUTH (Abutilon theophrasti [15]) | herbicidal activity STEME (Stellaria media [16]) | herbicidal activity MATIN (Matricaria inodora [17])
1 | Fc1ccc(Oc2c(F)cccc2Nc2ncc(Cl)cn2)cc1 [Example 1-204] | 100% | 100% | 100% | 90% | 100% | 100% | 100% | 100% | 100% | 100% | 100% | 100% | 90% | – | – | – | – | –
2 | N#Cc1cccc(Nc2ncc(F)cn2)c1Oc1ccc(F)cc1 [Example 1-267] | 100% | 100% | 100% | 90% | 100% | – | 100% | 100% | 100% | 100% | 100% | 100% | 100% | 100% | 100% | 100% | 100% | –
3 | N#Cc1cccc(Nc2ncc(F)cn2)c1Oc1ccc(F)c(F)c1 [Example 1-272] | 100% | 100% | 100% | 100% | 100% | 100% | 100% | 100% | 100% | 100% | 100% | 100% | 100% | 100% | 100% | 100% | 100% | 100%
4 | N#Cc1cccc(Nc2ncc(Cl)cn2)c1Oc1ccc(F)cc1 [Example 1-286] | 100% | 100% | 100% | 90% | 100% | 100% | 100% | 100% | – | 100% | 100% | 100% | 100% | 100% | 90% | 90% | 100% | –
5 | N#Cc1cccc(Nc2ncc(F)cn2)c1Oc1ccc(F)c(F)c1F [Example 1-374] | 100% | 100% | 100% | – | 100% | – | 100% | 100% | 100% | 100% | 100% | 100% | 100% | 100% | – | – | 100% | 100%
6 | N#Cc1cccc(Nc2ncc(Cl)cn2)c1Oc1ccc(F)nc1 [Example 3-55] | 100% | 100% | – | 90% | 100% | 90% | 100% | 100% | 100% | 100% | 100% | 100% | 100% | 100% | 100% | 100% | 100% | 90%
